Assay results as given in patent US20230159510A1, “NOVEL PRMT5 INHIBITORS” (AMGEN INC., priority 2020, published 2023).
Read-outs that look alike come from different tables or passages of the source.

Legend:
[1] = test system: HCT116 MTAP null cells; assay: HCT116 proliferation assay, MTAP null cells (CellTiter-Glo, 6 days); assay type: cell-based; conditions: read-out: Protif_ HCT116-MTAP null IC50
Method in brief: (§1)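 Readout is CellTiter-Glo luminescence after 6 days of drug exposure at 37 °C. Compounds tested as 8–9 point, 3-fold dilution series starting at 1 or 10 µM, versus DMSO only, on cells in RPMI 1640 with 10% FBS.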

[2] = test system: HCT116 WT cells; assay: HCT116 proliferation assay, WT cells (CellTiter-Glo, 6 days); assay type: cell-based; conditions: read-out: Prolif_HCT116-WT IC50
Method in brief: as §1

[3] = molecular target: PRMT5/MEP50 (Homo sapiens, UniProt O14744); assay: MTase-Glo methyl transferase assay, Method B (FL-Histone H2A, 1 µM MTA, 1 h pre-incubation); assay type: biochemical; design: purchased Reaction Biology Corp RD-11-292; conditions: read-out: PRMT5 MTase Glo Ki (nM, Meth. B)
Procedure: Method B: The PRMT5 inhibitory activity of test compounds was determined using the MTase-Glo™ assay (Promega), which monitors the product (S-adenosyl homocysteine or SAH) of methyltransferase reactions. The PRMT5 MTase-Glo assay was conducted in a 384-well white ProxiPlate (PerkinElmer) in a total volume of 16 µL. The PRMT5 enzymatic reaction (in 8 µL) contained 4 nM PRMT5/MEP50 (Reaction Biology Corp, catalog no.: RD-11-292), 5 µM S-adenosyl methionine (SAM, Promega), 2.5 µM FL-Histone H2A (BPS Bioscience, catalog no.: 52021), 1 µM 5′-methylthioadenosine (MTA, Sigma) and ½ log serially diluted compounds in a reaction buffer of 50 mM Tris (pH 8.0), 50 mM NaCl, 0.01% Tween 20, 0.01% BSA, and 1 mM TCEP. Test compounds were pre-incubated with PRMT5/MEP50, SAM, and MTA for 1 hour before addition of FL-Histone H2A to initiate the PRMT5 reaction. The reaction was allowed to proceed for 20 hours at room temperature and was then terminated by addition of 1 µL of 9X MTase-Glo™ Reagent (Promega). After a 30-minute incubation at room temperature, 8 µL of MTase-Glo™ Detection Solution (Promega) was added and the plate was incubated at room temperature for an additional 30 minutes. The light signal corresponding to the amount of SAH produced by the PRMT5 reaction was subsequently measured using an Envision multimode reader (PerkinElmer). IC50 and KI values were obtained by analyzing dose-response curves using GraphPad Prism®.

PRMT5/MEP50, sequence (O14744 2-637 limits assumed): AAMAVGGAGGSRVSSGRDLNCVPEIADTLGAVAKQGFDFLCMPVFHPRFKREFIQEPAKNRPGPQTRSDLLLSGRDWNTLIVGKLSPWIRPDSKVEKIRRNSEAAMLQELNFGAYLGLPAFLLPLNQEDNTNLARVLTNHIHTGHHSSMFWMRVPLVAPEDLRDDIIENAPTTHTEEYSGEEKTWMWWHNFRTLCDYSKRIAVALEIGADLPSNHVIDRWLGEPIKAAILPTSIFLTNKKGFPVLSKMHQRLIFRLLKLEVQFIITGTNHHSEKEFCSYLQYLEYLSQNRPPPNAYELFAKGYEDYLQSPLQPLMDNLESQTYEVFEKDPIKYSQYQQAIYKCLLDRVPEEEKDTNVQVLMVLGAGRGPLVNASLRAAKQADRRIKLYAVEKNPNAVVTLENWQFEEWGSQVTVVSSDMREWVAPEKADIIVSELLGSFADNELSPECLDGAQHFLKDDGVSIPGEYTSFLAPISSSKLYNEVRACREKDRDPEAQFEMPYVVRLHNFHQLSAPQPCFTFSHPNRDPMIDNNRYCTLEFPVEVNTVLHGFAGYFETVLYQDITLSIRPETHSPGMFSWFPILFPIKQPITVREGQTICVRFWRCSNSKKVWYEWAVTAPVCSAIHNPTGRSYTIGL
PRMT5/MEP50, sequence (Q9BQA1 2-342 partner limits assumed): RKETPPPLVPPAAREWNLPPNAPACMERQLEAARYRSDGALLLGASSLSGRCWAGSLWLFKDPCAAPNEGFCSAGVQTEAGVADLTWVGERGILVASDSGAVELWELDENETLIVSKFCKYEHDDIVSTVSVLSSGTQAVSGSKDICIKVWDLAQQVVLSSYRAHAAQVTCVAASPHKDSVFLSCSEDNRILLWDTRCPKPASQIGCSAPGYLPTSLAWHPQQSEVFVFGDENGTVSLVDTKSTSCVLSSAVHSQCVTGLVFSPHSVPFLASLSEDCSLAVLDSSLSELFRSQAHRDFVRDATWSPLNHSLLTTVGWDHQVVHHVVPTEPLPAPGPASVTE

| Compound | IC50 [2] | Ki [3] | IC50 ([1]; HCT116-MTAP null, 144 h) | IC50 ([2]; Homo sapiens, HCT-116, 144 h) | IC50 [1] |
| --- | --- | --- | --- | --- | --- |
| 2-amino-3-methyl-N-[(4-methylthiazol-5-yl)methyl] -N-[[5-(trifluoromethyl)-2-pyridyl]methyl] quinoline-6-carboxamide [Example 565] | 3490 nM | 2.77 nM | – | – | 94 nM |
| Cc1cc2cc(C(=O)N(Cc3ccc(C(F)(F)F)cn3)CC3CCC3)ccc2nc1N [Example 562, 2-amino-N-(cyclobutylmethyl)-3-methyl-N-[[5-(trifluoromethyl)-2-pyridyl]methyl]quinoline-6-carboxamide] | – | 3.76 nM | 455 nM | > 1000 nM | – |
| Cc1cc2cc(C(=O)N(Cc3ccc(CO)c(F)c3)Cc3ccc(C(F)(F)F)cn3)ccc2nc1N [Example 566, 2-amino-N-[[3-fluoro-4-(hydroxymethyl)phenyl]methyl]-3-methyl-N-[[5-(trifluoromethyl)-2-pyridyl]methyl] quinoline-6-carboxamide] | – | 4.58 nM | 277 nM | > 10000 nM | – |
| Cc1cc2cc(C(=O)N(Cc3ccc(C(F)(F)F)cn3)Cc3c[nH]c4ccccc34)ccc2nc1N [Example 567, 2-amino-N-(1H-indol-3-ylmethyl)-3-methyl-N-[[5-(trifluoromethyl)-2-pyridyl]methyl] quinoline-6-carboxamide] | – | 4.44 nM | 103 nM | > 1000 nM | – |
| Cc1cc2cc(C(=O)N(Cc3ccc(C(F)(F)F)cn3)C(C)c3cc[nH]c(=O)c3)ccc2nc1N (centres unmarked) [Example 664, 2-amino-3-methyl-N-[1-(2-oxo-1H-pyridin-4-yl)ethyl]-N-[[5-(trifluoromethyl)-2-pyridyl]methyl] quinoline-6-carboxamide] | – | 9.1 nM | 670 nM | – | – |
| Cc1cc2cc(C(=O)N(Cc3cc(Br)ccn3)CC(C)C)ccc2nc1N [Example 665, 2-amino-N-[(4-bromo-2-pyridyl)methyl]-N-isobutyl-3-methylquinoline-6-carboxamide] | – | 9.17 nM | 680 nM | – | – |
| COc1ccnc2c1CCCC2N(Cc1ccc(C(F)(F)F)cn1)C(=O)c1ccc2nc(N)c(C)cc2c1 (centres unmarked) [Example 666, 2-amino-N-(4-methoxy-5,6,7,8-tetrahydroquinolin-8-yl)-3-methyl-N-[[5-(trifluoromethyl)-2-pyridyl]methyl] quinoline-6-carboxamide] | – | 3.93 nM | 41 nM | – | – |
| Cc1cc2cc(C(=O)N(Cc3ccc(C(F)(F)F)cn3)C3CCCc4ncccc43)ccc2nc1N (centres unmarked) [Example 667, 2-amino-3-methyl-N-(5,6,7,8-tetrahydroquinolin-5-yl)-N-[[5-(trifluoromethyl)-2-pyridyl]methyl] quinoline-6-carboxamide] | – | 3.9 nM | 24 nM | – | – |
| Cc1cc2cc(C(=O)N(Cc3ccc(C(F)(F)F)cn3)C3CCC4CCCC4C3)ccc2nc1N (centres unmarked) [Example 669, N-(2,3,3a,4,5,6,7,7a-octahydro-1H-inden-5-yl)-2-amino-3-methyl-N-[[5-(trifluoromethyl)-2-pyridyl]methyl] quinoline-6-carboxamide] | – | 8.5 nM | 820 nM | – | – |
| Cc1cc2cc(C(=O)N(Cc3ccc(C(F)(F)F)cn3)C3CCc4[nH]cnc4C3)ccc2nc1N (centres unmarked) [Example 670, 2-amino-3-methyl-N-(4,5,6,7-tetrahydro-1H-benzimidazol-5-yl)-N-[[5-(trifluoromethyl)-2-pyridyl]methyl] quinoline-6-carboxamide] | – | 5.15 nM | 860 nM | – | – |
| Cc1cc2cc(C(=O)N(Cc3ccc(C(F)(F)F)cn3)C3CCc4cn[nH]c4C3)ccc2nc1N (centres unmarked) [Example 671, 2-amino-3-methyl-N-(4,5,6,7-tetrahydro-1 H-indazol-6-yl)-N-[[5-(trifluoromethyl)-2-pyridyl]methyl] quinoline-6-carboxamide] | – | 6.82 nM | 180 nM | – | – |
| CCn1ncc2c1CCCC2N(Cc1ccc(C(F)(F)F)cn1)C(=O)c1ccc2nc(N)c(C)cc2c1 (centres unmarked) [Example 673, 2-amino-N-(1-ethy1-4,5,6,7-tetrahydroindazol-4-yl)-3-methyl-N-[[5-(trifluoromethyl)-2-pyridyl]methyl] quinoline-6-carboxamide] | – | 5.32 nM | 95 nM | – | – |
| Cc1cc2cc(C(=O)N(Cc3ccc(C(F)(F)F)cc3)Cc3c(F)cncc3F)ccc2nc1N [Example 685, 2-amino-N-[(3,5-difluoro-4-pyridyl)methyl]-3-methyl-N-[[4-(trifluoromethyl)phenyl]methyl] quino line-6-carboxamide] | – | 1.22 nM | – | – | 51 nM |

The next lines start with results.

| IC50 [2] | Ki [3] | IC50 ([1]; HCT116-MTAP null, 144 h) | IC50 ([2]; Homo sapiens, HCT-116, 144 h) | Compound | IC50 [1] |
| --- | --- | --- | --- | --- | --- |
| – | 15.3 nM | 510 nM | – | Cc1cc2cc(C(=O)N(Cc3ccc(C(F)(F)F)cn3)C3Cc4ccccc4C3O)ccc2nc1N (centres unmarked) [Example 674, 2-amino-N-(1-hydroxyindan-2-yl)-3-methyl-N-[[5-(trifluoromethyl)-2-pyridyl]methyl] quinoline-6-carboxamide] | – |
| – | 9.37 nM | 950 nM | – | Cc1cc2cc(C(=O)N(Cc3ccc(C(F)(F)F)cn3)CC3CCC(O)C3)ccc2nc1N (centres unmarked) [Example 677, 2-amino-N-[(3-hydroxycyclopentyl)methyl]-3-methyl-N-[[5-(trifluoromethyl)-2-pyridyl]methyl] quinoline-6-carboxamide] | – |
| – | 5.57 nM | 500 nM | – | Cc1cc2cc(C(=O)N(Cc3ccc(C(F)(F)F)cn3)CC3CCCC(O)C3)ccc2nc1N (centres unmarked) [Example 678, 2-amino-N-[(3-hydroxycyclohexyl)methyl]-3-methyl-N-[[5-(trifluoromethyl)-2-pyridyl]methyl] quinoline-6-carboxamide] | – |
| – | 4.87 nM | 240 nM | – | CCC(C1CCOCC1)N(Cc1ccc(C(F)(F)F)cn1)C(=O)c1ccc2nc(N)c(C)cc2c1 (centres unmarked) [Example 681, 2-amino-3-methyl-N-(1-tetrahydropyran-4-ylpropyl)-N-[[5-(trifluoromethyl)-2-pyridyl]methyl] quinoline-6-carboxamide] | – |
| – | 5.12 nM | 590 nM | – | Cc1cc2cc(C(=O)N(Cc3ccc(C(F)(F)F)cn3)Cc3ccnn3C)ccc2nc1N [Example 686, 2-amino-3-methyl-N-[(2-methylpyrazol-3-yl)methyl]-N-[[5-(trifluoromethyl)-2-pyridyl]methyl] quinoline-6-carboxamide] | – |
| – | 1.56 nM | 110 nM | – | Cc1cc2cc(C(=O)N(Cc3ccnc4[nH]ccc34)Cc3ccnn3C)ccc2nc1N [Example 687, 2-amino-3-methyl-N-[(2-methylpyrazol-3-yl)methy1] -N-(1 H-pyrrolo [2,3-b]pyridin-4-ylmethyl)quinoline-6-carboxamide] | – |
| – | 1.41 nM | 240 nM | – | Cc1cc2cc(C(=O)N(Cc3ccc(O)cc3)Cc3ccnc4[nH]ccc34)ccc2nc1N [Example 688, 2-amino-N-[(4-hydroxyphenyl)methyl]-3-methyl-N-(1H-pyrrolo[2,3-b]pyridin-4-ylmethyl)quinoline-6-carboxamide] | – |
| – | 2.94 nM | 330 nM | – | Cc1cc2cc(C(=O)N(Cc3ccc[nH]3)Cc3ccnc4[nH]ccc34)ccc2nc1N [Example 689, 2-amino-3-methyl-N-(1H-pyrrolo[2,3-b]pyridin-4-ylmethyl)-N-(1H-pyrrol-2-ylmethyl)quinoline-6-carboxamide] | – |
| – | 1.68 nM | 94 nM | – | Cc1cc2cc(C(=O)N(Cc3ccccc3O)Cc3ccnc4[nH]ccc34)ccc2nc1N [Example 690, 2-amino-N-[(2-hydroxyphenyl)methyl]-3-methyl-N-(1H-pyrrolo[2,3-b]pyridin-4-ylmethyl)quinoline-6-carboxamide] | – |
| – | 3.51 nM | 520 nM | – | Cc1cc2cc(C(=O)N(Cc3ccc(N)cn3)Cc3c[nH]c4ccccc34)ccc2nc1N [Example 691, 2-amino-N-[(5-amino-2-pyridyl)methyl]-N-(1H-indol-3-ylmethyl)-3-methyl-quinoline-6-carboxamide] | – |
| – | 6.14 nM | 97 nM | – | Cc1cc2cc(C(=O)N(Cc3ccc(C(F)(F)F)cn3)C(C)CC#N)ccc2nc1N (centres unmarked) [Example 693, 2-amino-N-(2-cyano-1-methyl-ethyl)-3-methyl-N-[[5-(trifluoromethyl)-2-pyridyl]methyl] quinoline-6-carboxamide] | – |
| – | 6.3 nM | 760 nM | – | Cc1cc2cc(C(=O)N(CCC3CC3)Cc3ccc(C(F)(F)F)cn3)ccc2nc1N [Example 695, 2-amino-N-(2-cyclopropylethyl)-3-methyl-N-[[5-(trifluoromethyl)-2-pyridyl]methyl] quinoline-6-carboxamide] | – |
| – | 2.19 nM | 200 nM | – | Cc1cc2cc(C(=O)N(Cc3ccc(C(F)(F)F)cn3)C(C)CC3CC3)ccc2nc1N (centres unmarked) [Example 696, 2-amino-N-(2-cyclopropyl-1-methylethyl)-3-methyl-N-[[5-(trifluoromethyl)-2-pyridyl]methyl] quinoline-6-carboxamide] | – |
